pEC50: −log10 of the molar value.
Experiments:
Hepatitis B virus = assay: Antiviral activity against Hepatitis B virus infected in human HepG2.2.15 cells assessed as inhibition of viral DNA synthesis incubated for 2 days followed by replacement of fresh medium containing compound and measured at day 10 by RT-PCR analysis; format: functional, organism-based
HepG2 2.2.15 = assay: Cytotoxicity against human HepG2.2.15 cells assessed as reduction in cell viability incubated for 12 hrs followed by replacement of fresh medium containing compound and measured after 2 days by CCK-8 assay; format: functional
[1] = Selectivity index, ratio of CC50 for cytotoxicity against human HepG2.2.15 cells to EC50 for HBV infected in human HepG2.2.15 cells; format: toxicity, cell-based; details: read-out: Ratio CC50/EC50

`C[C@H](CCC(=O)OCCCOP(=O)(COCCn1cnc2c(N)ncnc21)OCCCSC(=O)[C@@H](N)Cc1ccccc1)[C@H]1CC[C@H]2[C@@H]3[C@@H](O)C[C@@H]4C[C@H](O)CC[C@]4(C)[C@H]3CC[C@]12C` (stereo partly specified) showed a pEC50 (Hepatitis B virus) of 4.53, a CC50 (HepG2 2.2.15) of 3040 µM and a selectivity ratio [1] of 103.
For `C[C@H](CCC(=O)OCCCOP(=O)(COCCn1cnc2c(N)ncnc21)OCCCOC(=O)[C@@H](C)N)[C@H]1CC[C@H]2[C@@H]3[C@@H](O)C[C@@H]4C[C@H](O)CC[C@]4(C)[C@H]3CC[C@]12C` (stereo partly specified), the pEC50 (Hepatitis B virus) was 5.26, the CC50 (HepG2 2.2.15) was 489 µM and the selectivity ratio [1] was 90.
In the case of `CC(C)[C@@H](N)C(=O)OCCCOP(=O)(COCCn1cnc2c(N)ncnc21)OCCCOC(=O)CC[C@@H](C)[C@H]1CC[C@H]2[C@@H]3[C@@H](O)C[C@@H]4C[C@H](O)CC[C@]4(C)[C@H]3CC[C@]12C` (stereo partly specified), the pEC50 (Hepatitis B virus) was 5.48, the CC50 (HepG2 2.2.15) was 407 µM and the selectivity ratio [1] was 122.
With `CC(C)[C@@H](N)C(=O)OCCCOP(=O)(COCCn1cnc2c(N)ncnc21)OCCCOC(=O)CC[C@@H](C)[C@H]1CC[C@H]2[C@@H]3CC[C@@H]4C[C@H](O)CC[C@]4(C)[C@H]3C[C@H](O)[C@]12C` (stereo partly specified) the pEC50 (Hepatitis B virus) was 4.95, the CC50 (HepG2 2.2.15) was 666 µM and the selectivity ratio [1] was 59.2.
For `CC(C)[C@H](N)C(=O)SCCCOP(=O)(COCCn1cnc2c(N)ncnc21)OCCCOC(=O)CC[C@@H](C)[C@H]1CC[C@H]2[C@@H]3[C@@H](O)C[C@@H]4C[C@H](O)CC[C@]4(C)[C@H]3CC[C@]12C` (stereo partly specified), the pEC50 (Hepatitis B virus) was 4.01, the CC50 (HepG2 2.2.15) was 1840 µM and the selectivity ratio [1] was 19.
With `CC(C)[C@H](N)C(=O)SCCCOP(=O)(COCCn1cnc2c(N)ncnc21)OCCCOC(=O)CC[C@@H](C)[C@H]1CC[C@H]2[C@@H]3CC[C@@H]4C[C@H](O)CC[C@]4(C)[C@H]3C[C@H](O)[C@]12C` (stereo partly specified) the pEC50 (Hepatitis B virus) was 4.79, the CC50 (HepG2 2.2.15) was 1020 µM and the selectivity ratio [1] was 62.5.
Work on `CC(C)C[C@H](N)C(=O)SCCCOP(=O)(COCCn1cnc2c(N)ncnc21)OCCCOC(=O)CC[C@@H](C)[C@H]1CC[C@H]2[C@@H]3[C@@H](O)C[C@@H]4C[C@H](O)CC[C@]4(C)[C@H]3CC[C@]12C` (stereo partly specified) yielded a pEC50 (Hepatitis B virus) of 4.83, a CC50 (HepG2 2.2.15) of 2070 µM and a selectivity ratio [1] of 140.
Work on `C[C@H](CCC(=O)OCCCOP(=O)(COCCn1cnc2c(N)ncnc21)OCCCSC(=O)[C@@H](N)Cc1ccccc1)[C@H]1CC[C@H]2[C@@H]3CC[C@@H]4C[C@H](O)CC[C@]4(C)[C@H]3C[C@H](O)[C@]12C` (stereo partly specified) yielded a pEC50 (Hepatitis B virus) of 4.73, a CC50 (HepG2 2.2.15) of 789 µM and a selectivity ratio [1] of 41.9.
`C[C@H](CCC(=O)OCCCOP(=O)(COCCn1cnc2c(N)ncnc21)OCCCOC(=O)[C@@H](C)N)[C@H]1CC[C@H]2[C@@H]3CC[C@@H]4C[C@H](O)CC[C@]4(C)[C@H]3C[C@H](O)[C@]12C` (stereo partly specified) showed a pEC50 (Hepatitis B virus) of 4.67, a CC50 (HepG2 2.2.15) of 1050 µM and a selectivity ratio [1] of 48.8.
Compound `CC(C)C[C@@H](N)C(=O)OCCCOP(=O)(COCCn1cnc2c(N)ncnc21)OCCCOC(=O)CC[C@@H](C)[C@H]1CC[C@H]2[C@@H]3CC[C@@H]4C[C@H](O)CC[C@]4(C)[C@H]3C[C@H](O)[C@]12C` (stereo partly specified) has a pEC50 (Hepatitis B virus) of 5.01, a CC50 (HepG2 2.2.15) of 876 µM and a selectivity ratio [1] of 89.7.
For `CC[C@H](C)[C@@H](N)C(=O)OCCCOP(=O)(COCCn1cnc2c(N)ncnc21)OCCCOC(=O)CC[C@@H](C)[C@H]1CC[C@H]2[C@@H]3[C@@H](O)C[C@@H]4C[C@H](O)CC[C@]4(C)[C@H]3CC[C@]12C` (stereo partly specified), the pEC50 (Hepatitis B virus) was 6.19, the CC50 (HepG2 2.2.15) was 378 µM and the selectivity ratio [1] was 528.
For `CC[C@H](C)[C@@H](N)C(=O)OCCCOP(=O)(COCCn1cnc2c(N)ncnc21)OCCCOC(=O)CC[C@@H](C)[C@H]1CC[C@H]2[C@@H]3CC[C@@H]4C[C@H](O)CC[C@]4(C)[C@H]3C[C@H](O)[C@]12C` (stereo partly specified), the pEC50 (Hepatitis B virus) was 4.36, the CC50 (HepG2 2.2.15) was 1880 µM and the selectivity ratio [1] was 42.5.

Source: ChEMBL document CHEMBL4346741, “Synthesis, pharmacological evaluation, and mechanistic study of adefovir mixed phosphonate derivatives bearing cholic acid and l-amino acid moieties for the treatment of HBV” (Bioorg Med Chem, 2019)
